Tests used:
ΔF508-CFTR [1] = target: T1, ΔF508-CFTR (Homo sapiens, UniProt P13569, DEL508-508); assay: CFTR cell surface levels using HRP-tagged ΔF508-CFTR expressing CFBE cells, in the presence of a co-corrector; format: cell-based
T1 construct: host or cells: CFBE41o-, doxycycline-inducible
In short: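 Chemiluminescent read-out of surface HRP (15 min, dark) after PBS washes. Activity is normalized as 100×(sample−DMSO)/(3 μM co-corrector alone−DMSO).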

ΔF508-CFTR [2] = target: T1, ΔF508-CFTR; assay: CFTR cell surface levels using HRP-tagged ΔF508-CFTR expressing CFBE cells, intrinsic corrector capacity; format: cell-based; parameters: % Activation: concentration or dose not given beside the values
In short: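 Read-out: chemiluminescent HRP activity of ECL4-HRP-tagged ΔF508-CFTR at the cell surface, 15 min substrate in dark. Normalized as 100×(sample−DMSO)/(positive control−DMSO).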

[3] = HRP-tagged ΔF508-CFTR CFBE cells, in the presence of 3 μM co-corrector
[4] = HRP-tagged ΔF508-CFTR CFBE cells, in the presence of 3 μM co-corrector, read-out: EC50
[5] = HRP-tagged ΔF508-CFTR expressing CFBE41o- cells, compound alone (intrinsic corrector capacity), 20 hours at 33° C.
[6] = HRP-tagged ΔF508-CFTR expressing CFBE41o- cells, compound alone (intrinsic corrector capacity), 20 hours at 33° C., read-out: EC50

T1 sequence (P13569 with tags, fused parts or gaps DEL508-508): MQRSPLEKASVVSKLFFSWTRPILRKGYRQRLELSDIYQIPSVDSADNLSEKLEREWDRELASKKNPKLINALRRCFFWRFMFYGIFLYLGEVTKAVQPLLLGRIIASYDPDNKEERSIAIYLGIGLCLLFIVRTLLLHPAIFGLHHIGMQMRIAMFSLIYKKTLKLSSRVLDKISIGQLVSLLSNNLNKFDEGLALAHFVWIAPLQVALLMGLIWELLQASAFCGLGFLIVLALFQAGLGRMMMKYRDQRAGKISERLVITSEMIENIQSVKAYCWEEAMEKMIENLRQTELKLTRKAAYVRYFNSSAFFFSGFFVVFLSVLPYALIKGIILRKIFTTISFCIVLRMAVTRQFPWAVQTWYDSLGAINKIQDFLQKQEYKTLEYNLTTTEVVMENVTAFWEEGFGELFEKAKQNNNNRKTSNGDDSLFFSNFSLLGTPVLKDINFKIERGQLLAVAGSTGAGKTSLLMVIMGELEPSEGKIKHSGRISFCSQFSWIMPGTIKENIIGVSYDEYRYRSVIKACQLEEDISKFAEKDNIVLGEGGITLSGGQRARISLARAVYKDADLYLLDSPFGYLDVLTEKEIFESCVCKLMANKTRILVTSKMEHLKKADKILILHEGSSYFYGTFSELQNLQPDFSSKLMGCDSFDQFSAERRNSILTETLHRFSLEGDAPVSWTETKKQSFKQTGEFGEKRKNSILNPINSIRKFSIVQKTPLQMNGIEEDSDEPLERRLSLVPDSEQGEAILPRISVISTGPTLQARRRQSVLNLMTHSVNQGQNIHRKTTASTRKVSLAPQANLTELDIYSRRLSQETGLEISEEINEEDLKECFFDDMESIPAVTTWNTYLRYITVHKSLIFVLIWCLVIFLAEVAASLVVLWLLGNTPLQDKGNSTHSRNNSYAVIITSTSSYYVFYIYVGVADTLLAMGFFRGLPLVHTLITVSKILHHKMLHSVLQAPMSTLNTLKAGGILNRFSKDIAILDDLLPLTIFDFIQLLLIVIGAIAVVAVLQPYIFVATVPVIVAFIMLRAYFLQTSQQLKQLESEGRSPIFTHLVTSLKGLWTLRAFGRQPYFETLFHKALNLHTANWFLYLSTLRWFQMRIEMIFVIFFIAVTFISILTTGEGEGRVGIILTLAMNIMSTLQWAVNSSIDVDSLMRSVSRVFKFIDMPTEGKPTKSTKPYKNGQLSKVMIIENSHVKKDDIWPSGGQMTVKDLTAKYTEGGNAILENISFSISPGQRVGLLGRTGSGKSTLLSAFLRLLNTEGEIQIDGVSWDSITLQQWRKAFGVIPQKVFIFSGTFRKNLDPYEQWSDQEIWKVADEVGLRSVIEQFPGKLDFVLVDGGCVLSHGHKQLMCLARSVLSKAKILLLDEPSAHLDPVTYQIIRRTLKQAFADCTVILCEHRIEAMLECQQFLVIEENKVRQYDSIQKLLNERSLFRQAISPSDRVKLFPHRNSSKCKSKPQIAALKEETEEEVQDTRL

Compound	% Activation (ΔF508-CFTR [1]; [3]) [%]	EC50 (ΔF508-CFTR [1]; [4]) [nM]	% Activation (ΔF508-CFTR [2]; [5]) [%]	EC50 (ΔF508-CFTR [2]; [6]) [nM]	EC50 (ΔF508-CFTR [1]) [nM]	EC50 (ΔF508-CFTR [2]) [nM]
CC(C)Oc1nn(C2CCCCC2)c2nc(C(=O)NS(=O)(=O)N(C)C)cc(-c3ccc(N4CCN(C(C)C)CC4)cc3)c12 [Compound 534, 1-cyclohexyl-N-(dimethylsulfamoyl)-3-[(propan-2-yl)oxy]-4-{4-[4-(propan-2-yl)piperazin-1-yl]phenyl}-1H-pyrazolo[3,4-b]pyridine-6-carboxamide]	289.35	344	105	241		
CCS(=O)(=O)NC(=O)c1cc(-c2ccc(N(C)C)nc2)c2c(C3CC3)nn(C3CCCCC3)c2n1 [Compound 92, 1-cyclohexyl-3-cyclopropyl-4-[6-(dimethylamino)pyridin-3-yl]-N-(ethanesulfonyl)-1H-pyrazolo[3,4-b]pyridine-6-carboxamide]	367.67	278	175.77	553		
CN(C)S(=O)(=O)NC(=O)c1cc(C2CCN(CCC(F)(F)F)CC2)c2c(C3CCC3)nn(-c3ccc(F)cc3)c2n1 [Compound 604, 3-cyclobutyl-N-(dimethylsulfamoyl)-1-(4-fluorophenyl)-4-[1-(3,3,3-trifluoropropyl)piperidin-4-yl]-1H-pyrazolo[3,4-b]pyridine-6-carboxamide]	268.3	300	86.51	490		
CN(C1CCOCC1)C1CCN(c2cc(C(=O)NS(=O)(=O)N(C)C)nc3c2c(C2CCC2)nn3-c2ccc(F)cc2)CC1 [Compound 528, 3-cyclobutyl-N-(dimethylsulfamoyl)-1-(4-fluorophenyl)-4-{4-[methyl(oxan-4-yl)amino]piperidin-1-yl}-1H-pyrazolo[3,4-b]pyridine-6-carboxamide]	357.9	834	185.8	859		
O=C(c1cc(N2CCC(CN3CCCC3)CC2)c2c(C3CCC3)nn(-c3ccccc3)c2n1)N1CCCS1(=O)=O [Compound 661, 2-(3-cyclobutyl-1-phenyl-4-{4-[(pyrrolidin-1-yl)methyl]piperidin-1-yl}-1H-pyrazolo[3,4-b]pyridine-6-carbonyl)-1λ^6,2-thiazolidine-1,1-dione]	227.45	135	67.125	155		
O=C(NS(=O)(=O)CCCN1CCOCC1)c1cc(N2CCC[C@@H](CO)C2)c2c(C3CCC3)nn(-c3ccccc3)c2n1 [Compound 350, 3-cyclobutyl-4-[(3R)-3-(hydroxymethyl)piperidin-1-yl]-N-[3-(morpholin-4-yl)propane-1-sulfonyl]-1-phenyl-1H-pyrazolo[3,4-b]pyridine-6-carboxamide]	274.6		104.21		287	357
COCCS(=O)(=O)NC(=O)c1cc(-c2ccc(C(=O)N3CCC(N(C)C)CC3)cc2)c2c(OC(C)C)nn(C3CCCCC3)c2n1 [Compound 545, 1-cyclohexyl-4-{4-[4-(dimethylamino)piperidine-1-carbonyl]phenyl}-N-(2-methoxyethanesulfonyl)-3-[(propan-2-yl)oxy]-1H-pyrazolo[3,4-b]pyridine-6-carboxamide]	318.7	1910	112.7	3330		
C[C@@H]1CN(c2cc(C(=O)NS(=O)(=O)N(C)C)nc3c2c(C2CCC2)nn3C2CCCCC2)CCN1Cc1ccccc1 [Compound 582, 4-[(3R)-4-benzyl-3-methylpiperazin-1-yl]-3-cyclobutyl-1-cyclohexyl-N-(dimethylsulfamoyl)-1H-pyrazolo[3,4-b]pyridine-6-carboxamide]	245.15	271	75.38	370		
CN(c1ccc(-c2cc(C(=O)NS(C)(=O)=O)nc3c2c(C2CCC2)nn3-c2cccc(N3CCCC3)c2)cc1)C1CCOCC1 [Compound 111, 3-cyclobutyl-N-(methanesulfonyl)-4-{4-[methyl(oxan-4-yl)amino]phenyl}-1-[3-(pyrrolidin-1-yl)phenyl]-1H-pyrazolo[3,4-b]pyridine-6-carboxamide]	596.8	378	411.63	444		
COCCS(=O)(=O)NC(=O)c1cc(N2CCC(COC)CC2)c2c(C3CCC3)nn(-c3ccc(F)cc3)c2n1 [Compound 670, 3-cyclobutyl-1-(4-fluorophenyl)-N-(2-methoxyethanesulfonyl)-4-[4-(methoxymethyl)piperidin-1-yl]-1H-pyrazolo[3,4-b]pyridine-6-carboxamide]	477.6	191	399.2	277		
CC(C)c1nn(-c2ccc(F)cc2)c2nc(C(=O)NS(C)(=O)=O)cc(N3CCC(N(C)C)CC3)c12 [Compound 319, 4-[4-(dimethylamino)piperidin-1-yl]-1-(4-fluorophenyl)-N-(methanesulfonyl)-3-(propan-2-yl)-1H-pyrazolo[3,4-b]pyridine-6-carboxamide]	232	980	34.315	298		
CC(=O)N1CCC(COc2cc(C(=O)NS(C)(=O)=O)nc3c2c(C2CCC2)nn3-c2ccccc2)CC1 [Compound 296, 4-[(1-acetylpiperidin-4-yl)methoxy]-3-cyclobutyl-N-(methanesulfonyl)-1-phenyl-1H-pyrazolo[3,4-b]pyridine-6-carboxamide]	329.13	168	154.7	396		
CC(C)c1nn(-c2cccc(N(C)C)c2)c2nc(C(=O)NS(C)(=O)=O)cc(-c3ccc(N4CCOCC4)nc3)c12 [Compound 53, 1-[3-(dimethylamino)phenyl]-N-(methanesulfonyl)-4-[6-(morpholin-4-yl)pyridin-3-yl]-3-(propan-2-yl)-1H-pyrazolo[3,4-b]pyridine-6-carboxamide]	572.78	647	376.8	671		
CC(C)Oc1nn(C2CCCCC2)c2nc(C(=O)NS(C)(=O)=O)cc(-c3ccc(C(=O)N4CCC(N(C)C)CC4)cc3)c12 [Compound 544, 1-cyclohexyl-4-{4-[4-(dimethylamino)piperidine-1-carbonyl]phenyl}-N-(methanesulfonyl)-3-[(propan-2-yl)oxy]-1H-pyrazolo[3,4-b]pyridine-6-carboxamide]	344.9	2000	135.3	3330		
CC(C)c1nn(-c2cccc(N3CCC(F)C3)c2)c2nc(C(=O)NS(C)(=O)=O)cc(-c3ccc(N4CCOCC4)cc3)c12 (stereo not drawn) [Compound 46, 1-[3-(3-fluoropyrrolidin-1-yl)phenyl]-N-(methanesulfonyl)-4-[4-(morpholin-4-yl)phenyl]-3-(propan-2-yl)-1H-pyrazolo[3,4-b]pyridine-6-carboxamide]	643.27	446	457.3	706		
CN(C)S(=O)(=O)NC(=O)c1cc(N2CCC3(CC2)CC(N2CCOCC2)CO3)c2c(C3CCC3)nn(-c3ccc(F)cc3)c2n1 (stereo not drawn) [Compound 533, 3-cyclobutyl-N-(dimethylsulfamoyl)-1-(4-fluorophenyl)-4-[3-(morpholin-4-yl)-1-oxa-8-azaspiro[4.5]decan-8-yl]-1H-pyrazolo[3,4-b]pyridine-6-carboxamide]	322.45	221	156.3	222		
COC1CN(c2cccc(-n3nc(C(C)C)c4c(-c5ccc(N6CCOCC6)cc5)cc(C(=O)NS(C)(=O)=O)nc43)c2)C1 [Compound 36, N-(methanesulfonyl)-1-[3-(3-methoxyazetidin-1-yl)phenyl]-4-[4-(morpholin-4-yl)phenyl]-3-(propan-2-yl)-1H-pyrazolo[3,4-b]pyridine-6-carboxamide]	572.93	246	384.57	416		
O=C(NS(=O)(=O)N1CCOCC1)c1cc(N2CCC(N3CCOCC3)CC2)c2c(C3CCC3)nn(-c3ccccc3)c2n1 [Compound 383, 3-cyclobutyl-N-(morpholine-4-sulfonyl)-4-[4-(morpholin-4-yl)piperidin-1-yl]-1-phenyl-1H-pyrazolo[3,4-b]pyridine-6-carboxamide]	412.20		202.9			
CC(C)c1nn(-c2cccc(N(C)C)c2)c2nc(C(=O)NS(C)(=O)=O)cc(-c3ccc(N4CCC(C#N)CC4)nc3)c12 [Compound 83, 4-[6-(4-cyanopiperidin-1-yl)pyridin-3-yl]-1-[3-(dimethylamino)phenyl]-N-(methanesulfonyl)-3-(propan-2-yl)-1H-pyrazolo[3,4-b]pyridine-6-carboxamide]	567.7	425	391.5	547		
COCC1CCN(c2cc(C(=O)NS(=O)(=O)N3CCC[C@H]3C(=O)N3CCN(C)CC3)nc3c2c(C2CCC2)nn3-c2ccccc2)CC1 [Compound 389, 3-cyclobutyl-4-[4-(methoxymethyl)piperidin-1-yl]-N-[(2S)-2-(4-methylpiperazine-1-carbonyl)pyrrolidine-1-sulfonyl]-1-phenyl-1H-pyrazolo[3,4-b]pyridine-6-carboxamide]	305.1	297	165	556		

— patent publication US10259810B2, “N-sulfonylated pyrazolo[3,4-b]pyridin-6-carboxamides and method of use” (AbbVie S.à.r.l., priority 2015, dated 2019)
